In ChEMBL document CHEMBL3045111, “Synthesis and herbicidal activities of novel 3-(substituted benzyloxy or phenoxy)-6-methyl-4-(3-trifluoromethylphenyl)pyridazine derivatives” (2012):
Activity calls are given as the source filed them. No cut-off for these calls is given here.

Key:
[1] = system: Brassica rapa subsp. oleifera; experiment: Post-emergence herbicidal activity against one-leaf stage Brassica rapa subsp. oleifera under greenhouse condition at 600 g /ha measured after 24 days by spray method; type: functional; conditions: 576 h, read-out: GI
[2] = system: Spirodela polyrhiza; experiment: Bleaching herbicidal activity in Spirodela polyrhiza fronds cultured in compound-containing in medium assessed as chlorophyll inhibition at 10 ug/ml after 7 days; type: functional; conditions: 168 h
[3] = system: Digitaria; experiment: Pre-emergence herbicidal activity against Digitaria adscendens under greenhouse condition at 750 g /ha measured after 24 days by spray method; type: functional; conditions: in Digitaria adscendens, 576 h, read-out: GI
[4] = system: Brassica rapa subsp. oleifera; experiment: Post-emergence herbicidal activity against one-leaf stage Brassica rapa subsp. oleifera under greenhouse condition assessed as complete bleaching of leaves at 300 g /ha measured after 24 days by spray method; type: functional, organism-based
[5] = system: Echinochloa crus-galli; experiment: Post-emergence herbicidal activity against one-leaf stage of Echinochloa crus-galli (barnyard grass) under greenhouse condition at 750 g /ha measured after 24 days by spray method; type: functional; conditions: 576 h, read-out: GI
[6] = system: Brassica rapa subsp. oleifera; experiment: Pre-emergence herbicidal activity against Brassica rapa subsp. oleifera under greenhouse condition at 750 g /ha measured after 24 days by spray method; type: functional; conditions: 576 h, read-out: GI
[7] = system: Spirodela polyrhiza; experiment: Bleaching herbicidal activity in Spirodela polyrhiza fronds cultured in compound-containing in medium assessed as chlorophyll inhibition at 1 ug/ml after 7 days; type: functional; conditions: 168 h
[8] = system: Digitaria; experiment: Post-emergence herbicidal activity against one-leaf stage of Digitaria adscendens under greenhouse condition at 750 g /ha measured after 24 days by spray method; type: functional; conditions: in Digitaria adscendens, 576 h, read-out: GI
[9] = system: Amaranthus retroflexus; experiment: Pre-emergence herbicidal activity against Amaranthus retroflexus under greenhouse condition at 750 g /ha measured after 24 days by spray method; type: functional; conditions: 576 h, read-out: GI
[10] = system: Brassica rapa subsp. oleifera; experiment: Post-emergence herbicidal activity against one-leaf stage Brassica rapa subsp. oleifera under greenhouse condition assessed as complete bleaching of leaves at 150 g /ha measured after 24 days by spray method; type: functional, organism-based
[11] = system: Amaranthus retroflexus; experiment: Post-emergence herbicidal activity against one-leaf stage of Amaranthus retroflexus under greenhouse condition at 750 g /ha measured after 24 days by spray method; type: functional; conditions: 576 h, read-out: GI
[12] = system: Brassica rapa subsp. oleifera; experiment: Post-emergence herbicidal activity against one-leaf stage Brassica rapa subsp. oleifera under greenhouse condition at 150 g /ha measured after 24 days by spray method; type: functional; conditions: 576 h, read-out: GI
[13] = system: Brassica rapa subsp. oleifera; experiment: Post-emergence herbicidal activity against one-leaf stage Brassica rapa subsp. oleifera under greenhouse condition assessed as complete bleaching of leaves at 600 g /ha measured after 24 days by spray method; type: functional, organism-based
[14] = system: Brassica rapa subsp. oleifera; experiment: Post-emergence herbicidal activity against one-leaf stage Brassica rapa subsp. oleifera under greenhouse condition at 750 g /ha measured after 24 days by spray method; type: functional; conditions: 576 h, read-out: GI
[15] = system: Brassica rapa subsp. oleifera; experiment: Post-emergence herbicidal activity against one-leaf stage Brassica rapa subsp. oleifera under greenhouse condition at 300 g /ha measured after 24 days by spray method; type: functional; conditions: 576 h, read-out: GI
[16] = system: Echinochloa crus-galli; experiment: Pre-emergence herbicidal activity against Echinochloa crus-galli (barnyard grass) under greenhouse condition at 750 g /ha measured after 24 days by spray method; type: functional; conditions: 576 h, read-out: GI

Row | Structure (SMILES) | inhibition of growth at 600 g/ha [1] [%] | inhibition at 10 µg/mL [2] [%] | inhibition of growth at 750 g/ha [3] [%] | Activity [4] | inhibition of growth at 750 g/ha [5] [%] | inhibition of growth at 750 g/ha [6] [%] | inhibition at 1 µg/mL [7] [%] | inhibition of growth at 750 g/ha [8] [%] | inhibition of growth at 750 g/ha [9] [%] | Activity [10] | inhibition of growth at 750 g/ha [11] [%] | inhibition of growth at 150 g/ha [12] [%] | Activity [13] | inhibition of growth at 750 g/ha [14] [%] | inhibition of growth at 300 g/ha [15] [%] | inhibition of growth at 750 g/ha [16] [%]
1 | Cc1cc(-c2cccc(C(F)(F)F)c2)c(OCc2ccccc2)nn1 | 92 | 82 | 7 | Active | 29 | 55 | 62 | 0 | 38 | Active | 50 | 62 | Active | 94 | 86 | 27
2 | Cc1cc(-c2cccc(C(F)(F)F)c2)c(OCc2ccccc2Cl)nn1 | 97 | 93 | 26 | Active | 16 | 52 | 59 | 26 | 40 | Active | 47 | 57 | Active | 90 | 96 | 0
3 | Cc1cc(-c2cccc(C(F)(F)F)c2)c(OCc2ccccc2C(F)(F)F)nn1 | 92 | 76 | 2 | Active | 14 | 28 | 73 | 8 | 16 | Active | 46 | 38 | Active | 93 | 49 | 17
4 | Cc1cc(-c2cccc(C(F)(F)F)c2)c(OCc2c(Cl)cccc2Cl)nn1 | – | 26 | 41 | – | 4 | 2 | 4 | 0 | 15 | – | 34 | – | – | 20 | – | 1
5 | COc1ccccc1COc1nnc(C)cc1-c1cccc(C(F)(F)F)c1 | – | 72 | 33 | – | 1 | 0 | 18 | 10 | 0 | – | 25 | – | – | 16 | – | 0
6 | Cc1cc(-c2cccc(C(F)(F)F)c2)c(Oc2cccc(Cl)c2)nn1 | – | 72 | 7 | – | 57 | 11 | 72 | 74 | 0 | – | 63 | – | – | 100 | – | 6
7 | Cc1cc(-c2cccc(C(F)(F)F)c2)c(OCc2ccc(N(C)C)cc2)nn1 | – | 97 | 6 | – | 0 | 4 | 64 | 11 | 11 | – | 21 | – | – | 7 | – | 17
8 | Cc1cc(-c2cccc(C(F)(F)F)c2)c(OCc2cccc(F)c2)nn1 | 66 | 96 | 10 | Active | 14 | 0 | 89 | 0 | 9 | Active | 47 | 30 | Active | 93 | 47 | 18
9 | Cc1ccc(Oc2nnc(C)cc2-c2cccc(C(F)(F)F)c2)c(C)c1 | – | 41 | 0 | – | 18 | 0 | 0 | 19 | 0 | – | 64 | – | – | 45 | – | 15
10 | Cc1cc(-c2cccc(C(F)(F)F)c2)c(OCc2ccc(F)cc2)nn1 | – | 87 | 0 | – | 2 | 8 | 76 | 56 | 8 | – | 41 | – | – | 87 | – | 24
11 | Cc1cc(-c2cccc(C(F)(F)F)c2)c(Oc2ccccc2Br)nn1 | – | 78 | 7 | – | 30 | 0 | 0 | 21 | 0 | – | 0 | – | – | 34 | – | 0
12 | Cc1cc(C)cc(COc2nnc(C)cc2-c2cccc(C(F)(F)F)c2)c1 | – | 71 | 0 | – | 11 | 0 | 0 | 24 | 2 | – | 10 | – | – | 36 | – | 1
13 | Cc1cc(-c2cccc(C(F)(F)F)c2)c(OCc2ccc(Cl)cc2Cl)nn1 | – | 44 | 0 | – | 0 | 2 | 38 | 0 | 3 | – | 35 | – | – | 43 | – | 18
